Reference: patent publication US11466255B2, “Methods and compositions for converting non-endocrine pancreatic tissue into insulin-producing cells” (UNIVERSITY OF MIAMI, priority 2015, dated 2022)

Test system: hNEPT
Experiment: C-peptide content (ELISA, normalised to DNA) of hNEPT
Format: cell-based, human
Description: hNEPT culture: Human islets were isolated at the DRI's cGMP facility following methods already described54, and hNEPT samples (2-4 ml) were obtained as an isolation byproduct. The cells were washed and seeded on tissue culture-treated plates in FBS- and trypsin inhibitor-supplemented RPMI 1640 medium (Gibco-Life Technologies, Grand Island, N.Y.). After 48 h, floating cells were removed with fresh medium replacement. The following day, cultures were either treated with 100 ng/ml BMP-7 (ProSpec-Tany TechnoGene; Ness Ziona, Israel) or remained in the starting medium as controls. Cells were allowed to grow 4-5 days and then the serum-containing medium was replaced by serum-free Advanced RPMI 1640 (Gibco-Life Technologies, Grand Island, N.Y.). Four to five days later the cells were either subjected to static incubation to evaluate their ability to respond to changing glucose concentration or collected for further assessments (such as C-peptide content, immunohistochemistry or cellular composition) or transplantation.
Glucose-stimulated insulin release (GSIR) and total insulin determination: GSIR was performed in six-well plate cultures. BMP-7-treated samples and untreated controls were washed twice with DMEM medium containing 2.5 mM glucose (Low glucose medium or L-medium). Upon addition of 2 ml of the same medium, the cells were cultured for 1 h at 37° C. to bring their insulin secretion to baseline. After 2 more washes, 1 ml of L-medium was added and the cells were returned to the incubator for 1 h. At the end of incubation period, the medium was collected and the cells exposed for 1 h to 1 ml of 20 mM glucose DMEM medium (high glucose medium or H-medium). After the collection of the H-medium supernatant, the cells were washed three times with L-medium and cultured again in low glucose conditions for 1 h. As before, supernatant was collected at the end of the incubation period. The second low glucose incubation is necessary to confirm that the cells are responding to glucose concentration changes in a physiological manner and not dumping insulin. After the last incubation, the cells were collected, washed in PBS and lysed with 1 ml of T-Per (Thermo Scientific, Rockford, Ill.). The lysates and the supernatants from GSIR test were evaluated with ELISA for C-peptide content (Mercodia, Uppsala, Sweden) following manufacturer's instructions. DNA content of the lysates was used to normalize the results (Pico-Green dsDNA Assay Kit, Life Technologies-Molecular Probes, Grand Island, N.Y.).

| Molecule | reduction of the BMP-7-mediated induction of C-peptide (dorsomorphin added to BMP-7, n=4) | C-peptide production induction vs. t=0 (BMP-4 vs BMP-7 comparison, n=6, P=0.43) |
| --- | --- | --- |
| c1cc(-c2cnn3cc(-c4ccc(OCCN5CCCCC5)cc4)cnc23)ccn1 [dorsomorphin, reference compound] | ~3 fold |  |
| BMP-4: member of the BMPs family of proteins that signals through ALK3 and ALK6; SEQ ID NO:3 (protein, listed as Homo sapiens, fragment of BMP-4) SPKHHSQRARKKNKNCRRHSLYVDFSDVGWNDWIVAPPGYQAFYCHGDCPFPLADHLNSTNHAIVQTLVNSVNSSIPKACCVPTELSAISMLYLDEYDKVVLKNYQEMVVEGCGCR |  | 198±62.8 fold |
